The numbers were not newly measured in US20040019053A1, “Combination of an allosteric carboxylic inhibitor of matrix metalloproteinase-13 with celecoxib or valdecoxib” (priority 2002, published 2004), which cites them from elsewhere.

For `Cc1onc(-c2ccccc2)c1-c1ccc(S(N)(=O)=O)cc1` [valdecoxib, 4-(5-methyl-3-phenyl-4-isoxazolyl)-benzenesulfonamide], for the setting “combined analysis of clinical studies”, the Tolerability result was “well tolerated”. Also, the “Overall upper gastrointestinal safety profile (ulcers, perforations, obstructions and GI bleeds)” value (versus ibuprofen, diclofenac and naproxen) is recorded as “significantly better than the conventional NSAIDs studied”.
